# Reference: paper PMC11002875, “Linking triphenylphosphonium cation to a bicyclic hydroquinone improves their antiplatelet effect via the regulation of mitochondrial function” (Redox Biology, 2024)
# Tests used:
# [1] = system: Washed platelets; test: Platelet activation markers in washed platelets (flow cytometry); format: cell-based, Human; conditions: collagen 2 μg/mL; compounds 1, 5 and 10 μM; vs activated control
# Method: (§1) Human platelet purification. The blood sample was obtained from voluntary donors (10 days without antiplatelet medication) who agreed to participate after signing informed consent (Scientific Ethics Committee of the University of Talca N° 04–2022). Briefly, blood anticoagulated with acid-citrate-dextrose (ACD) was obtained in a 4:1 v/v ratio. The sample was centrifuged for 12 min at 250 g to obtain platelet-rich plasma (PRP). Subsequently, the PRP was centrifuged for 8 min at 900 g to obtain the platelet pellet. The plasma supernatant was removed, and the platelets were resuspended in Tyrodes buffer without calcium plus ACD in a ratio of 5:1 v/v. The platelets were centrifuged once more for 8 min at 900 g and the pellet was resuspended in Tyrodes buffer without calcium. Finally, the platelets were counted (Mindray BC-3000 Plus hematology counter, Japan), adjusted to the desired concentration, and used within 3 h.
# Platelet activation markers. Washed platelets (200-250 × 10^6 platelets/mL) were incubated with the compounds (1, 5 and 10 μM), then activated with collagen 2 μg/mL and incubated for 5 min at 37 °C. Aliquots of the reaction were then collected and labeled separately with human antibodies (BD Biosciences, San José, CA, USA) for P-selectin, CD63, activated GPIIb/IIIa (PAC-1), and fibrinogen to assess the levels of each marker on the platelet membrane. The sample was acquired using the BD Facs Lyric flow cytometer (BD Biosciences, USA). Representative dot plots are available in Supplementary Figures 8-11 and 20-23. In the case of the activation markers P-selectin and bound fibrinogen in PRP, the same procedure for washed platelets was performed with representative dot plots available in Supplementary Figs. 15 and 16. The platelet population was identified with anti-CD61-PE or anti-CD61-FITC (BD Biosciences, San José, CA, USA).
# [2] = system: Washed platelets; test: Cellular apoptosis (externalization of phosphatidylserine, annexin V); format: cell-based, Human; conditions: 1, 2, 5, 10 and 20 μM; 15 min
# Method: as §1
# Cellular apoptosis (externalization of phosphatidylserine). Washed platelets (200-250 × 10^6 platelets/mL) were incubated with the NP4 compound (1, 2, 5, 10 and 20 μM) for 15 min at 37 °C. Then 15 μL of the reaction was mixed with 25 μL of annexin V binding buffer (1x) and labeled with 2 μL of annexin V FITC (BD Pharmingen, FITC Annexin V Apoptosis Detection Kit I). […]
# [3] = system: Washed platelets; test: Cellular cytotoxicity by release of lactate dehydrogenase (LDH); format: cell-based, Human; conditions: Supplementary Fig. 1
# Method: as §1
# Cellular cytotoxicity by the release of lactate dehydrogenase (LDH). Washed platelets (200-250 × 10^6 platelets/mL) were incubated with the compounds under study or vehicle for 15 min at 37 °C. Then, the platelets were centrifuged at 900 g for 8 min to collect the supernatant. […] The absorbance was analyzed at 490 nm (Microplate Reader Thermo Scientific Multiskan Go, Finland).
# [4] = system: platelet-rich plasma; test: Platelet aggregation in platelet-rich plasma; format: cell-based, Human; conditions: collagen 2 μg/mL; PRP
# Method: Platelet aggregation in platelet-rich plasma. The blood sample was obtained from voluntary donors (10 days without antiplatelet medication) who agreed to participate after signing informed consent (Scientific Ethics Committee of the University of Talca N° 04–2022). Venous blood was collected by phlebotomy into 3.2% sodium citrate tubes. The tubes were centrifuged at 250 g for 12 min to obtain PRP. After reserving the PRP, the tubes were centrifuged again at 900 g for 10 min to obtain platelet-poor plasma (PPP). For the aggregation reaction, PRP was adjusted to 200-250 × 10^6 platelets/mL with PPP [[63], [64], [65]]. Platelet counting was performed in a counter (Mindray BC-3000 Plus hematology counter, Japan). The samples were preincubated with the compounds under study for 5 min at 37 °C in the aggregometer (Agg RAM- Helena Biosciences). Aggregation was initiated with collagen 2 μg/mL and the reaction was evaluated for 5 min at 37 °C in shaking at 1000 rpm.
# [5] = system: Washed platelets; test: Cell viability by Calcein-AM (flow cytometry); format: cell-based, Human; conditions: 1, 2, 5, 10 and 20 μM; 15 min
# Method: as §1
# Cell viability by Calcein-AM. Washed platelets (200-250 × 10^6 platelets/mL) were labeled with 0.1 μM Calcein-AM and incubated for 15 min at 37 °C protected from light. […] Viability was analyzed on the BD Facs Lyric Flow Cytometer (BD Biosciences, USA). The percentage of Calcein-negative platelets (without fluorescence) in the CD61-PE-positive subpopulation (BD Biosciences, San José, CA, USA) was identified as non-viable platelets. […]
# [6] = system: Washed platelets; test: Mitochondrial ROS (mtROS) levels (MitoSOX); format: cell-based, Human
# Method: as §1
# Mitochondrial ROS (mtROS) Levels. The MitoSOX probe was used to identify mitochondrial ROS production specifically. Washed platelets (50 × 10^6 platelets/mL) were labeled with the MitoSOX® Red probe (Invitrogen, Carlsbad, CA, USA) 10 μM and incubated for 20 min at 37 °C protected from light. After, compounds (1, 5, and 10 μM) were added to the platelets and incubated for 10 min at 37 °C. […]
compound,measurement,setting,value
"Cc1c(C)c(O)c2c(c1O)C(=O)C(CCCC[P+](c1ccccc1)(c1ccccc1)c1ccccc1)=CC2(C)C.[Br-] [NP4, (4-(5,8-dihydroxy-4,4,6,7-tetramethyl-1-oxo-1,4-dihydronaphthalen-2-yl)butyl)triphenyl phosphonium bromide]",melting point,,282 °C (dec.)
same,Bound fibrinogen platelet activation marker,[1],at the 10 μM concentration was able to significantly decrease
same,CD63 platelet activation marker,[1],at the 10 μM concentration was able to significantly decrease
same,P-selectin platelet activation marker,[1],at the 10 μM concentration was able to significantly decrease
same,PAC-1 (activated GPIIb/IIIa) platelet activation marker,[1],at the 10 μM concentration was able to significantly decrease
same,Apoptosis (phosphatidylserine externalization),[2],none of the concentrations evaluated for NP4 showed significant effects
same,Safe concentrations (LDH release),[3],below 10 μM
same,Platelet aggregation in platelet-rich plasma,[4],significant decrease
same,Platelet viability (Calcein-AM negative platelets),[5],none of the concentrations evaluated for NP4 showed significant effects
same,mtROS generation,"[6]; 10 μM, MitoSOX, 10 min",able to increase
same,Dependence of depolarizing and antiplatelet effect on mtROS,"[6]; MitoTempol 1 µM added first, then NP4 10 µM",independent of mitochondrial ROS levels
